Test [1] has as its system RAW 264.7 macrophage cells. As to the kind of experiment: Metabolic potential (OCR/ECAR, XFp) after co-injection of FCCP and oligomycin, LPS treatment. Format: cell-based. To be noted: 1 μg/ml LPS, 1 hour; stress 0.5 μM FCCP + 1.0 μM oligomycin. The protocol: Cells treated with LPS received media containing 1 μg/ml LPS, control cells received assay media.
Metabolic potential was measured using an XFp Extracellular Flux Analyzer (Seahorse Bioscience) and XFp assay cartridges (Seahorse Bioscience). Briefly, microplates containing LPS-treated and control cells were placed in the XFp Extracellular Flux Analyzer, and initial OCR and ECAR measurements are taken.

A further test concerns C2C12 myoblast cells. As to the kind of experiment: Metabolic potential (OCR/ECAR, XFp) after co-injection of FCCP and oligomycin, UK5099 treatment. The class given is cell-based. To be noted: 2 μM UK5099, 1 hour; stress 0.5 μM FCCP + 1.0 μM oligomycin. The protocol:
C2C12 myoblast cells were seeded into XFp microplates at a density of 1.2×10^4 cells/well.
Treated cells received media containing 2 μM UK5099 (a potent inhibitor of the mitochondrial pyruvate carrier), control cells received assay media.
Metabolic potential was measured using an XFp Extracellular Flux Analyzer (Seahorse Bioscience) and XFp assay cartridges (Seahorse Bioscience). Briefly, microplates containing UK5099-treated and control cells were placed in the XFp Extracellular Flux Analyzer, and initial OCR and ECAR measurements are taken.

In another test the test system is C2C12 myotubes. As to the kind of experiment: Metabolic potential (OCR/ECAR, XFp) after co-injection of FCCP and oligomycin, etomoxir treatment. To be noted: 40 μM etomoxir, 1 hour; stress 0.5 μM FCCP + 1.0 μM oligomycin. Format: cell-based. The protocol: C2C12 myoblast cells were seeded into XFp microplates at a density of 1.2×10^4 cells/well. […] During differentiation, medium was replaced with fresh differentiation medium every other day. […] Metabolic potential was measured using an XFp Extracellular Flux Analyzer (Seahorse Bioscience) and XFp assay cartridges (Seahorse Bioscience). Briefly, microplates containing etomoxir-treated and control myotubes were placed in the XFp Extracellular Flux Analyzer, and initial OCR and ECAR measurements are taken.

Test [2] has as its system RAW 264.7 macrophage cells. To be noted: RAW 264.7 cells, in the presence of 1.0 μM oligomycin; FCCP 0.125-2 μM tested.
Source text: Cultured cells are first seeded into the wells of an appropriate microplate (also referred to herein as a multi-well plate) for the instrument being used (as described above). • 2. After adherence to the microplate, cells are either allowed to grow as desired, or may be assayed for metabolic potential immediately. • 3. At time of assay, cell culture media is exchanged for a volume of assay media appropriate for the microplate being used to create a cell sample including a plurality of cells disposed in a media. The microplate is allowed to incubate for 1 h at 37° C. in a non-CO2 incubator. • 4. […] To titrate optimal FCCP concentration in an XFe96 instrument, RAW 264.7 macrophages are exposed to varying concentrations of the drug, and the resulting OCR is measured. In this example, cells were first treated with 1.0 μM oligomycin (final concentration in 200 μl assay media), OCR was measured, and then one of the following concentrations of FCCP was added: 0.125, 0.25, 0.5, 1.0, or 2.0 μM (final concentration in 222 μl assay media). […] The metabolic potential of the cell sample may be determined by (i) providing the initial oxygen consumption rate, the initial extracellular acidification rate, the subsequent oxygen consumption rate, and the subsequent extracellular acidification rate to a software program, and (ii) using the software program to calculate the metabolic potential. […]

In the case of lipopolysaccharide [LPS], in test [1], the “aerobic metabolic potential relative to control cells” value is listed as “increased” and the “glycolytic potential relative to control cells” value is “roughly unchanged”. On to `N#C/C(=C\c1cn(-c2ccccc2)c2ccccc12)C(=O)O` [UK5099], for which, in the test with C2C12 myoblast cells, the “aerobic metabolic potential relative to control cells” value is on record as “decreased” and the “glycolytic metabolic potential relative to control cells” value is “decreased”. For the compound `CCOC(=O)[C@@]1(CCCCCCOc2ccc(Cl)cc2)CO1` [etomoxir], in the test on C2C12 myotubes, the “aerobic metabolic potential compared to control myotubes” value is recorded as “increased” and the “glycolytic metabolic potential compared to control myotubes” value is “slightly decreased”. Regarding `N#CC(C#N)=NNc1ccc(OC(F)(F)F)cc1` [FCCP, carbonyl cyanide p-trifluoromethoxyphenylhydrazone], in test [2], the “FCCP concentration at which maximal OCR is achieved” value is 0.5 µM.

(Values after patent US11940442B2, “Method and system for determining integrated metabolic baseline and potential of living cells” (AGILENT TECHNOLOGIES, INC., priority 2015, dated 2024).)
